# According to patent US20100035932A1, “NOVEL FORMYL PEPTIDE RECEPTOR LIKE 1 AGONISTS THAT INDUCE MACROPHAGE TUMOR NECROSIS FACTOR ALPHA AND COMPUTATIONAL STRUCTURE-ACTIVITY RELATIONSHIP ANALYSIS OF THEREOF” (priority 2008, published 2010):
# Like-named read-outs stand apart in the source and are kept apart here.
# Columns and labels:
# human neutrophils = experiment: Ca2+ mobilization in human neutrophils (FLIPR Calcium 3); settings: Neutrophil, read-out: [Ca2+]i EC50
# J774.A1 macrophages = experiment: TNF-α production in J774.A1 macrophages (ELISA); assay type: cell-based, murine; settings: for fold induction at 50 µM: Mus musculus, J774.A1, 24 h; for Determined class of macrophage TNF-α inducing activity: experimentally determined class
# [1] = 50 μM compound, above response to vehicle (DMSO) control, Table 5 numbering, N.A. = inactive, read-out: FI (fold-increase of macrophage TNF-α production)
# [2] = relative fold of activation compared to vehicle (DMSO) control for 50 μM compound, N.A. = no activity was observed, read-out: TNF-α production
Compound,Determined class of macrophage TNF-α inducing activity (J774.A1 macrophages),other results
O=C(N/N=C/c1ccco1)c1ccc(Br)cc1O [Compound 35],,EC50 (human neutrophils): 22.7 µM
CN(C)c1ccc(/C=N\NC(=O)c2ccc([N+](=O)[O-])cc2)cc1 [Compound 53],Active,fold induction at 50 µM (J774.A1 macrophages; [1]): 25
O=C(N/N=C/c1c(O)ccc2ccccc12)c1ccc2c(c1)OCO2 [Compound 68],NA (inactive derivatives were placed in the nonactive group labeled “NA”),
O=C(N/N=C/c1ccc(-c2cccc(C(F)(F)F)c2)o1)c1cccc([N+](=O)[O-])c1 [Compound 13],,fold induction at 50 µM (J774.A1 macrophages; [2]): < 5
O=C(N/N=C/c1cc(Br)c(Br)o1)c1ccc2c(c1)OCCO2 [Compound 30],,EC50 (human neutrophils): 9.8 µM
O=C(N/N=C/c1ccc(-c2ccc(Cl)cc2Cl)o1)c1ccc2c(c1)OCO2 [Compound 24],,fold induction at 50 µM (J774.A1 macrophages; [2]): < 2
O=C(N/N=C/c1cc(Br)cc(I)c1O)c1ccc2c(c1)OCCO2 [Compound 62],NA (inactive derivatives were placed in the nonactive group labeled “NA”),
O=C(N/N=C/c1ccc(-c2ccc(Cl)c(Cl)c2)o1)c1ccc2c(c1)OCO2 [Compound 55],Active,fold induction at 50 µM (J774.A1 macrophages; [1]): < 5
CCOc1cc(/C=N\NC(=O)c2ccc3c(c2)OCO3)ccc1OC(=O)c1ccc(Br)cc1 [Compound 11],,fold induction at 50 µM (J774.A1 macrophages; [2]): < 5
O=C(N/N=C/c1cc(Br)c(Br)o1)c1ccc2c(c1)OCO2 [Compound 16],,fold induction at 50 µM (J774.A1 macrophages; [2]): < 5
Cc1ccc(C(=O)N/N=C/c2ccc(C)o2)cc1 [Compound 36],,EC50 (human neutrophils): 25.5 µM
O=C(O)COc1ccccc1/C=N/NC(=O)c1ccc2c(c1)OCO2 [Compound 72],NA (inactive derivatives were placed in the nonactive group labeled “NA”),
COc1ccc(C(=O)N/N=C\c2ccc(N(C)C)cc2)cc1 [Compound 61],NA (inactive derivatives were placed in the nonactive group labeled “NA”),
O=C(N/N=C/c1cc(Br)cc(I)c1O)c1ccc2c(c1)OCCO2 [Compound 27],,EC50 (human neutrophils): 8 µM
O=C(N/N=C1\C(=O)N(Cc2cccc3ccccc23)c2ccccc21)c1ccc2c(c1)OCO2 [Compound 29],,EC50 (human neutrophils): 9.3 µM
COc1ccc(Cl)cc1/C=N/NC(=O)c1ccc2c(c1)OCCO2 [Compound 79],NA (inactive derivatives were placed in the nonactive group labeled “NA”),
O=C(N/N=C/c1cc(/N=N\c2cccc(C(F)(F)F)c2)ccc1O)c1ccc2c(c1)OCO2 [Compound 63],NA (inactive derivatives were placed in the nonactive group labeled “NA”),
CCc1ccc(C(=O)N/N=C/c2ccc(-c3ccc(C)c(Cl)c3)o2)nc1 [Compound 85],NA (inactive derivatives were placed in the nonactive group labeled “NA”),
Cc1ccc(-c2ccc(/C=N/NC(=O)c3ccncc3)o2)cc1Cl [Compound 51],Active,fold induction at 50 µM (J774.A1 macrophages; [1]): 50

Compound,Determined class of macrophage TNF-α inducing activity (J774.A1 macrophages),other results
CCN1C(=O)/C(=N\NC(=O)c2ccc3c(c2)OCO3)c2ccccc21 [Compound 77],NA (inactive derivatives were placed in the nonactive group labeled “NA”),
O=C(N/N=C/c1cc(Br)cc(Br)c1OC(=O)c1ccccc1)c1ccc2c(c1)OCO2 [Compound 12],,fold induction at 50 µM (J774.A1 macrophages; [2]): < 5
CN(C)c1ccc(/C=N\NC(=O)c2cccc(F)c2)cc1 [Compound 33],,EC50 (human neutrophils): 13.1 µM
O=C(N/N=C/c1cc(/N=N\c2cccc3ccccc23)ccc1O)c1ccc2c(c1)OCO2 [Compound 74],NA (inactive derivatives were placed in the nonactive group labeled “NA”),
CCOc1ncccc1C(=O)N/N=C/c1ccc([N+](=O)[O-])o1 [Compound 80],NA (inactive derivatives were placed in the nonactive group labeled “NA”),
COc1ccc(C(=O)N/N=C\c2ccc(N(C)C)cc2)cc1 [Compound 26],,EC50 (human neutrophils): 3 µM
COc1ccc(/C(C)=N/NC(=O)c2ccc3c(c2)OCCO3)cc1[N+](=O)[O-] [Compound 78],NA (inactive derivatives were placed in the nonactive group labeled “NA”),
O=C(/C=C/c1ccco1)Oc1cccc(/C=N/NC(=O)c2ccc3c(c2)OCO3)c1 [Compound 59],NA (inactive derivatives were placed in the nonactive group labeled “NA”),
O=C(N/N=C/c1ccc(-c2ccccc2Cl)o1)c1ccc(Cl)cc1Cl [Compound 14],,fold induction at 50 µM (J774.A1 macrophages; [2]): < 5
CN(C)c1ccc(/C=N/NC(=O)c2ccc3c(c2)OCO3)cc1 [Compound 34],,EC50 (human neutrophils): 17.9 µM
O=C(/C=C/c1ccco1)Oc1cccc(/C=N/NC(=O)c2ccc3c(c2)OCO3)c1 [Compound 31],,EC50 (human neutrophils): 12.4 µM
"CSCC[C@H](NC=O)C(=O)N[C@@H](CC(C)C)C(=O)N[C@@H](Cc1ccccc1)C(=O)O [fMLF, N-formyl-Met-Leu-Phe, reference compound]",,"TNF-α production by peptide agonists (J774.A1 macrophages; 50 μM, 24 hr): failed to induce macrophage TNF-α production"
COc1cc(/C=N\NC(=O)c2cccc(C)c2O)ccc1OCc1ccccc1 [Compound 60],NA (inactive derivatives were placed in the nonactive group labeled “NA”),
O=C(N/N=C/c1ccc(-c2cccc(Br)c2)o1)c1ccccn1 [Compound 86],NA (inactive derivatives were placed in the nonactive group labeled “NA”),
CN(C)c1ccc(/C=N\NC(=O)c2ccccc2O)cc1 [Compound 73],NA (inactive derivatives were placed in the nonactive group labeled “NA”),
Nc1ccc(C(=O)N/N=C/c2ccc(-c3ccc([N+](=O)[O-])cc3Cl)o2)cc1 [Compound 22],,fold induction at 50 µM (J774.A1 macrophages; [2]): < 2
CCOc1cc(/C=N\NC(=O)c2ccc3c(c2)OCO3)ccc1OC(=O)c1ccc(Br)cc1 [Compound 56],Active,fold induction at 50 µM (J774.A1 macrophages; [1]): < 5
O=C(N/N=C/c1cc(/N=N\c2cccc(C(F)(F)F)c2)ccc1O)c1ccc2c(c1)OCO2 [Compound 28],,EC50 (human neutrophils): 8.5 µM
O=C(/C=C\c1ccco1)Oc1ccc(/C=N\NC(=O)c2ccc3c(c2)OCO3)cc1 [Compound 71],NA (inactive derivatives were placed in the nonactive group labeled “NA”),

Compound,Determined class of macrophage TNF-α inducing activity (J774.A1 macrophages),other results
O=C(N/N=C/c1ccc(-c2cccc(C(F)(F)F)c2)o1)c1ccc(Br)cc1 [Compound 52],Active,fold induction at 50 µM (J774.A1 macrophages; [1]): 35
C/C(=N\NC(=O)c1ccc2c(c1)OCO2)c1cccc([N+](=O)[O-])c1 [Compound 75],NA (inactive derivatives were placed in the nonactive group labeled “NA”),
O=C(N/N=C1\C(=O)N(Cc2cccc3ccccc23)c2ccccc21)c1ccc2c(c1)OCO2 [Compound 64],NA (inactive derivatives were placed in the nonactive group labeled “NA”),
COc1ccc(-c2ccc(/C=N/NC(=O)c3ccc([N+](=O)[O-])cc3)o2)cc1Cl [Compound 57],Active,fold induction at 50 µM (J774.A1 macrophages; [1]): < 5
COc1ccc(/C=N/NC(=O)c2ccc3c(c2)OCO3)c(OC)c1 [Compound 69],NA (inactive derivatives were placed in the nonactive group labeled “NA”),
O=C(N/N=C/c1ccc([N+](=O)[O-])o1)c1cccc([N+](=O)[O-])c1 [Compound 23],,fold induction at 50 µM (J774.A1 macrophages; read-out: TNF-α production): < 2
4-fluoro-benzoic acid [5-(3-trifluoromethyl-phenyl)-2-furyl]methylene-hydrazide [Compound 2],Active,"FI (fold-increase of macrophage TNF-α production) (J774.A1 macrophages; 50 μM compound, above response to vehicle (DMSO) control, Table 5 numbering, N.A. = inactive): 60 fold-increase"
O=C(N/N=C/c1ccc(-c2ccc(Cl)c(Cl)c2)o1)c1ccncc1 [Compound 84],NA (inactive derivatives were placed in the nonactive group labeled “NA”),
CC(C)N1C(=O)/C(=N\NC(=O)c2ccc3c(c2)OCO3)c2ccccc21 [Compound 76],NA (inactive derivatives were placed in the nonactive group labeled “NA”),
O=C(N/N=C/c1cc(Br)c(Br)o1)c1ccc2c(c1)OCO2 [Compound 58],Active,fold induction at 50 µM (J774.A1 macrophages; [1]): < 5
O=C(N/N=C/c1ccc(-c2cccc(C(F)(F)F)c2)o1)c1cc(I)ccc1Cl [Compound 15],,fold induction at 50 µM (J774.A1 macrophages; [2]): < 5
CN(C)c1ccc(/C=N\NC(=O)c2cccc(F)c2)cc1 [Compound 66],NA (inactive derivatives were placed in the nonactive group labeled “NA”),
COc1cc(/C=N\NC(=O)c2ccc3c(c2)OCO3)ccc1OCc1ccccc1 [Compound 54],Active,fold induction at 50 µM (J774.A1 macrophages; [1]): 7
COc1cc(/C=N\NC(=O)c2ccc3c(c2)OCO3)ccc1OC(=O)c1ccco1 [Compound 70],NA (inactive derivatives were placed in the nonactive group labeled “NA”),
O=C(N/N=C/c1ccco1)c1cccnc1 [Compound 81],NA (inactive derivatives were placed in the nonactive group labeled “NA”),
O=C(N/N=C/c1ccc(-c2ccc(Cl)cc2)o1)c1ccncc1 [Compound 83],NA (inactive derivatives were placed in the nonactive group labeled “NA”),
O=C(N/N=C/c1cc(Br)c(Br)o1)c1ccc2c(c1)OCCO2 [Compound 65],NA (inactive derivatives were placed in the nonactive group labeled “NA”),
O=C(N/N=C/c1ccc(-c2ccc(Cl)c([N+](=O)[O-])c2)o1)c1ccc2c(c1)OCO2 [Compound 82],NA (inactive derivatives were placed in the nonactive group labeled “NA”),
CN(C)c1ccc(/C=N/NC(=O)c2ccc3c(c2)OCO3)cc1 [Compound 67],NA (inactive derivatives were placed in the nonactive group labeled “NA”),
